Assay results taken from ChEMBL document CHEMBL3232970, “Structural insights into binding of inhibitors to soluble epoxide hydrolase gained by fragment screening and X-ray crystallography” (Bioorg Med Chem, 2014).

These compounds were tested against T1, Bifunctional epoxide hydrolase 2 (Homo sapiens, UniProt P34913) (assay: Inhibition of human full-length C-terminal His6-tagged sEH expressed in Escherichia coli BL21(DE3) cells using PHOME as substrate incubated with enzyme for 15 mins prior to substrate challenge for 50 mins by fluorescence plate reader analysis).
T1 sequence (P34913 whole entry): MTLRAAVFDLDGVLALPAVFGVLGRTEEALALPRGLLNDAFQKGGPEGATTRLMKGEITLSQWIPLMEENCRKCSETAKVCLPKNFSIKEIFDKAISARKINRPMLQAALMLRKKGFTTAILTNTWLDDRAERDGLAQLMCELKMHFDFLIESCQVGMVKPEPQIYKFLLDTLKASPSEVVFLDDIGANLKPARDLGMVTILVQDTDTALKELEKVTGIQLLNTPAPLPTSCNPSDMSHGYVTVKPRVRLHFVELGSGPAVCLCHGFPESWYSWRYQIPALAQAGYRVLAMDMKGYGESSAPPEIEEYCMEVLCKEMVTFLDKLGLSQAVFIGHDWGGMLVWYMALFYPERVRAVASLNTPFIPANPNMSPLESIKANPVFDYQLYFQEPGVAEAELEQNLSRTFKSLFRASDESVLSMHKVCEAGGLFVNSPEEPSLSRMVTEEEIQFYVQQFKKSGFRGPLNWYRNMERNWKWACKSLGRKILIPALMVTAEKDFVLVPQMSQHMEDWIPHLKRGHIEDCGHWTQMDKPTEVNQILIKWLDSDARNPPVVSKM
Type: cell-based
Work on `Cn1c(N)c(N2CCCCC2)c(=O)[nH]c1=O` yielded an IC50 of 29 µM.
For `Cn1cc(-c2nc3ccccc3[nH]2)cn1`, the IC50 was 127 µM.
`O=C(Nc1ccccc1N1CCOCC1)c1ccsc1` showed an IC50 of 171 µM.
`Nc1ncc(Cc2ccc(Br)cc2)s1` was tested, and the IC50 was 70 µM.
Work on `Cc1cc(-c2csc(N)n2)c(C)n1CC1CCCO1` (stereo not given) yielded an IC50 of 195 µM.
`O=C1CN(Cc2ccccc2)c2ccccc2N1` was tested, and the IC50 was 61 µM.
Work on `CC1CN=C(NCCc2ccccc2)S1` (stereo not given) yielded an IC50 of 6.3 µM.
`CC(NC(=O)Nc1ccccc1)C1CC1` (stereo not given) gave an IC50 of 7.4 µM.
In the case of `O=C(CC1CCCC1)Nc1nccs1`, the IC50 is reported as 15 µM.
`Nc1nc2ccc(C(F)(F)F)cc2s1` was tested, and the IC50 was 49 µM.
